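Each compound was tested at five concentrations against cells in 96-well plates for 48 hours. Abbreviation: GI50, concentration required for 50% inhibition of growth.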 Calls of active or inactive are those of the source. Rule as the data show it: active = GI50 up to about 1.1 µM and inactive = higher.
Legend:
Test in all cases: NCI anticancer screen, dose series, 48 h
[1] = tested on: NCI/ADR-RES
[2] = tested on: SW-620
[3] = tested on: OVCAR-8
[4] = tested on: SF-268
[5] = tested on: CCRF-CEM
[6] = tested on: SK-OV-3
[7] = tested on: RPMI-8226
[8] = tested on: OVCAR-4
[9] = tested on: M14
[10] = tested on: BT-549
[11] = tested on: HOP-92
[12] = tested on: 786-0
[13] = tested on: COLO 205
[14] = tested on: MDA-N
[15] = tested on: MOLT-4
[16] = tested on: HCC 2998
[17] = tested on: NCI-H226
[18] = tested on: SN12C
[19] = tested on: UACC-257
[20] = tested on: TK-10
[21] = tested on: MDA-MB-435
[22] = tested on: SR
[23] = tested on: KM12
[24] = tested on: NCI-H522
[25] = tested on: K562
[26] = tested on: NCI-H23
[27] = tested on: CAKI-1
[28] = tested on: DU-145
[29] = tested on: Malme-3M
[30] = tested on: OVCAR-5
[31] = tested on: SF-295
[32] = tested on: SF-539
[33] = tested on: UO-31
[34] = tested on: HCT-15
[35] = tested on: SK-MEL-2
[36] = tested on: MDA-MB-231
[37] = tested on: NCI-H460
[38] = tested on: HOP-62
[39] = tested on: IGROV-1
[40] = tested on: A549
[41] = tested on: SK-MEL-28
[42] = tested on: U-251
[43] = tested on: HCT-116
[44] = tested on: SK-MEL-5
[45] = tested on: OVCAR-3
[46] = tested on: HT-29
[47] = tested on: A498
[48] = tested on: T47D
[49] = tested on: RXF 393
[50] = tested on: ACHN
[51] = tested on: PC-3
[52] = tested on: UACC-62
[53] = tested on: MCF7
[54] = tested on: EKVX
[55] = tested on: SNB-19
[56] = tested on: LOX IMVI
[57] = tested on: HL-60
[58] = tested on: SNB-75
[59] = tested on: Hs-578T

In the case of `FC(F)(Sc1ccccn1)c1nc2ccccc2o1`, the GI50 [1] is reported as 85.3 µM (inactive), the GI50 [2] is reported as > 100 µM (inactive) and the GI50 [3] is reported as > 100 µM (inactive). The GI50 [4] was > 100 µM (inactive), the GI50 [5] was 65.2 µM (inactive) and the GI50 [6] was > 100 µM (inactive). For the same compound, the GI50 [7] was > 100 µM (inactive), the GI50 [8] was > 100 µM (inactive) and the GI50 [9] was > 100 µM (inactive). For the same compound, the GI50 [10] was 64.1 µM (inactive), the GI50 [11] was 76.6 µM (inactive) and the GI50 [12] was > 100 µM (inactive). The GI50 [13] was > 100 µM (inactive), the GI50 [14] was > 100 µM (inactive) and the GI50 [15] was > 100 µM (inactive). The GI50 [16] was > 100 µM (inactive), the GI50 [17] was > 100 µM (inactive) and the GI50 [18] was > 100 µM (inactive). The GI50 [19] was > 100 µM (inactive), the GI50 [20] was > 100 µM (inactive) and the GI50 [21] was > 100 µM (inactive). For the same compound, the GI50 [22] was > 100 µM (inactive), the GI50 [23] was > 100 µM (inactive) and the GI50 [24] was > 100 µM (inactive). The GI50 [25] was 60.5 µM (inactive), the GI50 [26] was > 100 µM (inactive) and the GI50 [27] was > 100 µM (inactive). The GI50 [28] was > 100 µM (inactive), the GI50 [29] was > 100 µM (inactive) and the GI50 [30] was > 100 µM (inactive). The GI50 [31] was > 100 µM (inactive), the GI50 [32] was > 100 µM (inactive) and the GI50 [33] was 69.7 µM (inactive). The GI50 [34] was 55.7 µM, the GI50 [35] was > 100 µM (inactive) and the GI50 [36] was > 100 µM (inactive). For the same compound, the GI50 [37] was > 100 µM (inactive), the GI50 [38] was > 100 µM (inactive) and the GI50 [39] was > 100 µM (inactive). For the same compound, the GI50 [40] was > 100 µM (inactive), the GI50 [41] was > 100 µM (inactive) and the GI50 [42] was 38.6 µM (inactive). The GI50 [43] was 62.2 µM (inactive), the GI50 [44] was > 100 µM (inactive) and the GI50 [45] was 61.4 µM (inactive). For the same compound, the GI50 [46] was > 100 µM (inactive), the GI50 [47] was 38.7 µM (inactive) and the GI50 [48] was > 100 µM (inactive). The GI50 [49] was > 100 µM (inactive), the GI50 [50] was > 100 µM (inactive) and the GI50 [51] was > 100 µM (inactive). The GI50 [52] was > 100 µM (inactive) and the GI50 [53] was 55.2 µM (inactive).
For `COc1ccc(CCN2C(=O)CC34C=CC(CC3C2=O)O4)cc1OC` (stereo not drawn), the GI50 [1] was > 100 µM (inactive), the GI50 [2] was > 100 µM (inactive) and the GI50 [3] was > 100 µM (inactive). The GI50 [5] was > 100 µM (inactive), the GI50 [6] was > 100 µM (inactive) and the GI50 [7] was > 100 µM (inactive). The GI50 [8] was > 100 µM (inactive), the GI50 [9] was > 100 µM (inactive) and the GI50 [54] was > 100 µM (inactive). The GI50 [10] was > 100 µM (inactive), the GI50 [55] was > 100 µM (inactive) and the GI50 [11] was 97.5 µM (inactive). For the same compound, the GI50 [12] was > 100 µM (inactive), the GI50 [13] was > 100 µM (inactive) and the GI50 [14] was > 100 µM (inactive). The GI50 [15] was > 100 µM (inactive), the GI50 [16] was > 100 µM (inactive) and the GI50 [18] was > 100 µM (inactive). For the same compound, the GI50 [19] was > 100 µM (inactive), the GI50 [20] was > 100 µM (inactive) and the GI50 [21] was > 100 µM (inactive). The GI50 [22] was > 100 µM (inactive), the GI50 [23] was > 100 µM (inactive) and the GI50 [56] was > 100 µM (inactive). For the same compound, the GI50 [25] was > 100 µM (inactive), the GI50 [26] was > 100 µM (inactive) and the GI50 [27] was > 100 µM (inactive). The GI50 [28] was > 100 µM (inactive), the GI50 [30] was > 100 µM (inactive) and the GI50 [31] was > 100 µM (inactive). The GI50 [32] was > 100 µM (inactive), the GI50 [33] was > 100 µM (inactive) and the GI50 [34] was over 100 µM. The GI50 [57] was > 100 µM (inactive), the GI50 [35] was > 100 µM (inactive) and the GI50 [36] was > 100 µM (inactive). The GI50 [38] was > 100 µM (inactive), the GI50 [39] was > 100 µM (inactive) and the GI50 [40] was > 100 µM (inactive). The GI50 [41] was > 100 µM (inactive), the GI50 [42] was > 100 µM (inactive) and the GI50 [43] was > 100 µM (inactive). For the same compound, the GI50 [44] was > 100 µM (inactive), the GI50 [45] was > 100 µM (inactive) and the GI50 [46] was > 100 µM (inactive). For the same compound, the GI50 [47] was > 100 µM (inactive), the GI50 [48] was > 100 µM (inactive) and the GI50 [50] was > 100 µM (inactive). For the same compound, the GI50 [51] was > 100 µM (inactive), the GI50 [52] was > 100 µM (inactive) and the GI50 [53] was > 100 µM (inactive).
For `COc1ccc(NC(=S)Nc2cc(C)ccn2)cc1`, the GI50 [1] was 28.6 µM (inactive), the GI50 [2] was > 100 µM (inactive) and the GI50 [3] was > 100 µM (inactive). For the same compound, the GI50 [4] was > 100 µM (inactive), the GI50 [5] was > 100 µM (inactive) and the GI50 [7] was > 100 µM (inactive). For the same compound, the GI50 [8] was > 100 µM (inactive), the GI50 [54] was > 100 µM (inactive) and the GI50 [10] was > 100 µM (inactive). For the same compound, the GI50 [55] was > 100 µM (inactive), the GI50 [11] was > 100 µM (inactive) and the GI50 [12] was > 100 µM (inactive). The GI50 [13] was > 100 µM (inactive), the GI50 [15] was > 100 µM (inactive) and the GI50 [16] was > 100 µM (inactive). For the same compound, the GI50 [17] was > 100 µM (inactive), the GI50 [19] was > 100 µM (inactive) and the GI50 [20] was > 100 µM (inactive). For the same compound, the GI50 [21] was > 100 µM (inactive), the GI50 [22] was > 100 µM (inactive) and the GI50 [23] was > 100 µM (inactive). The GI50 [56] was > 100 µM (inactive), the GI50 [25] was > 100 µM (inactive) and the GI50 [26] was > 100 µM (inactive). The GI50 [27] was > 100 µM (inactive), the GI50 [28] was > 100 µM (inactive) and the GI50 [58] was > 100 µM (inactive). For the same compound, the GI50 [32] was > 100 µM (inactive), the GI50 [33] was > 100 µM (inactive) and the GI50 [34] was over 100 µM. The GI50 [57] was > 100 µM (inactive), the GI50 [35] was > 100 µM (inactive) and the GI50 [36] was > 100 µM (inactive). The GI50 [37] was > 100 µM (inactive), the GI50 [38] was > 100 µM (inactive) and the GI50 [39] was > 100 µM (inactive). For the same compound, the GI50 [41] was > 100 µM (inactive), the GI50 [42] was > 100 µM (inactive) and the GI50 [43] was > 100 µM (inactive). For the same compound, the GI50 [44] was > 100 µM (inactive), the GI50 [46] was > 100 µM (inactive) and the GI50 [47] was > 100 µM (inactive). For the same compound, the GI50 [48] was > 100 µM (inactive), the GI50 [49] was > 100 µM (inactive) and the GI50 [50] was > 100 µM (inactive). The GI50 [59] was > 100 µM (inactive), the GI50 [51] was > 100 µM (inactive) and the GI50 [52] was > 100 µM (inactive). For the same compound, the GI50 [53] was > 100 µM (inactive).

— ChEMBL document CHEMBL1201862, “PubChem BioAssay data set” (2004)
